Results from ChEMBL document CHEMBL5316338, “Discovery of Novel PTP1B Inhibitors with Once-Weekly Therapeutic Potential for Type 2 Diabetes: Design, Synthesis, and In Vitro and In Vivo Investigations of BimBH3 Peptide Analogues” (J Med Chem, 2023).
Numbered stars: 1 amine (or outer) side, 2 acyl side, 3 side chain; on linkers, the order of the positions; unused ones are H or OH. Square brackets hold non-standard residues; d marks the D form. Peptide text beside a SMILES is read from it. * marks the point of attachment. Adipoyl = O=C(CCCCC(=O)[*:2])[*:1]; Glutaryl = O=C(CCCC(=O)[*:2])[*:1]; Malonyl = O=C(CC(=O)[*:2])[*:1]; Heptanoyl = CCCCCCC(=O)*; Octanoyl = CCCCCCCC(=O)*; Aun = NCCCCCCCCCCC(=O)O; Hexanoyl = CCCCCC(=O)*; Butyryl = CCCC(=O)*

Target: T1, Tyrosine-protein phosphatase non-receptor type 1 (Homo sapiens) (UniProt P18031)
T1 sequence (whole entry): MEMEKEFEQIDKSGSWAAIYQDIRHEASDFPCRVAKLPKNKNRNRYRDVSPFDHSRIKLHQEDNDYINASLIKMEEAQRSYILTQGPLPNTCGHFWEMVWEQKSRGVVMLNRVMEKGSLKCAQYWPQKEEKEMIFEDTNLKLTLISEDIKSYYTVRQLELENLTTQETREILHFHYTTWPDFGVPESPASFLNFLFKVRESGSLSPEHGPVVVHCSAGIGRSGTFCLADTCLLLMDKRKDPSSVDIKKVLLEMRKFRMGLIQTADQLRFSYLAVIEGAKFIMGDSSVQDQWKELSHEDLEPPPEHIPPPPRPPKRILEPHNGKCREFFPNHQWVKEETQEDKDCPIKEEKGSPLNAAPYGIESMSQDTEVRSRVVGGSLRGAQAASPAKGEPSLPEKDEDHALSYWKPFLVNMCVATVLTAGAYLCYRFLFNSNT
Test: Inhibition of N-terminal His tagged recombinant human PTP1B expressed in Escherichia coli using pNPP as substrate assessed as substrate hydrolysis at 40 umol/L relative to control
Details: dose 40.0 µmol/L

Structure (SMILES): CC[C@H](C)[C@H](NC(=O)CCCCCCCCC(=O)O)C(=O)N[C@@H](C)C(=O)N[C@@H](CCC(N)=O)C(=O)N[C@@H](CCC(=O)O)C(=O)N[C@@H](CC(C)C)C(=O)N[C@@H](CCCNC(=N)N)C(=O)N[C@@H](CCCNC(=N)N)C(=O)N[C@H](C(=O)NCC(=O)N[C@H](CC(=O)O)C(=O)N[C@@H](CCC(=O)O)C(=O)N[C@@H](Cc1ccccc1)C(=O)O)[C@@H](C)CC
- inhibition: < 50%

Structure (SMILES): CC[C@H](C)[C@H](NC(=O)CCCCC(=O)O)C(=O)N[C@@H](C)C(=O)N[C@@H](CCC(N)=O)C(=O)N[C@@H](CCC(=O)O)C(=O)N[C@@H](CC(C)C)C(=O)N[C@@H](CCCNC(=N)N)C(=O)N[C@@H](CCCNC(=N)N)C(=O)N[C@H](C(=O)NCC(=O)N[C@@H](CC(=O)O)C(=O)N[C@@H](CCC(=O)O)C(=O)N[C@@H](Cc1ccccc1)C(=O)O)[C@@H](C)CC (Adipoyl-IAQELRRIGDEF-OH)
- inhibition: < 50%

Structure (SMILES): CCCC(=O)N[C@H](C(=O)N[C@@H](C)C(=O)N[C@@H](CCC(N)=O)C(=O)N[C@@H](CCC(=O)O)C(=O)N[C@@H](CC(C)C)C(=O)N[C@@H](CCCNC(=N)N)C(=O)N[C@@H](CCCNC(=N)N)C(=O)N[C@H](C(=O)NCC(=O)N[C@@H](CC(=O)O)C(=O)N[C@@H](CCC(=O)O)C(=O)N[C@@H](Cc1ccccc1)C(=O)O)[C@@H](C)CC)[C@@H](C)CC (Butyryl-IAQELRRIGDEF-OH)
- inhibition: < 50%

Structure (SMILES): CC[C@H](C)[C@H](NC(=O)CCCC(=O)O)C(=O)N[C@@H](C)C(=O)N[C@@H](CCC(N)=O)C(=O)N[C@@H](CCC(=O)O)C(=O)N[C@@H](CC(C)C)C(=O)N[C@@H](CCCNC(=N)N)C(=O)N[C@@H](CCCNC(=N)N)C(=O)N[C@H](C(=O)NCC(=O)N[C@@H](CC(=O)O)C(=O)N[C@@H](CCC(=O)O)C(=O)N[C@@H](Cc1ccccc1)C(=O)O)[C@@H](C)CC (Glutaryl-IAQELRRIGDEF-OH)
- inhibition: < 50%

Structure (SMILES): CC[C@H](C)[C@H](NC(=O)CCCCCCCCCCN)C(=O)N[C@@H](C)C(=O)N[C@@H](CCC(N)=O)C(=O)N[C@@H](CCC(=O)O)C(=O)N[C@@H](CC(C)C)C(=O)N[C@@H](CCCNC(=N)N)C(=O)N[C@@H](CCCNC(=N)N)C(=O)N[C@H](C(=O)NCC(=O)N[C@@H](CC(=O)O)C(=O)N[C@@H](CCC(=O)O)C(=O)N[C@@H](Cc1ccccc1)C(=O)O)[C@@H](C)CC (H-[Aun]IAQELRRIGDEF-OH)
- inhibition: < 50%

Structure (SMILES): CCCCCCC(=O)N[C@H](C(=O)N[C@@H](C)C(=O)N[C@@H](CCC(N)=O)C(=O)N[C@@H](CCC(=O)O)C(=O)N[C@@H](CC(C)C)C(=O)N[C@@H](CCCNC(=N)N)C(=O)N[C@@H](CCCNC(=N)N)C(=O)N[C@H](C(=O)NCC(=O)N[C@@H](CC(=O)O)C(=O)N[C@@H](CCC(=O)O)C(=O)N[C@@H](Cc1ccccc1)C(=O)O)[C@@H](C)CC)[C@@H](C)CC (Heptanoyl-IAQELRRIGDEF-OH)
- inhibition: < 50%

Structure (SMILES): CCCCCC(=O)N[C@H](C(=O)N[C@@H](C)C(=O)N[C@@H](CCC(N)=O)C(=O)N[C@@H](CCC(=O)O)C(=O)N[C@@H](CC(C)C)C(=O)N[C@@H](CCCNC(=N)N)C(=O)N[C@@H](CCCNC(=N)N)C(=O)N[C@H](C(=O)NCC(=O)N[C@@H](CC(=O)O)C(=O)N[C@@H](CCC(=O)O)C(=O)N[C@@H](Cc1ccccc1)C(=O)O)[C@@H](C)CC)[C@@H](C)CC (Hexanoyl-IAQELRRIGDEF-OH)
- inhibition: < 50%

Structure (SMILES): CC[C@H](C)[C@H](NC(=O)CC(=O)O)C(=O)N[C@@H](C)C(=O)N[C@@H](CCC(N)=O)C(=O)N[C@@H](CCC(=O)O)C(=O)N[C@@H](CC(C)C)C(=O)N[C@@H](CCCNC(=N)N)C(=O)N[C@@H](CCCNC(=N)N)C(=O)N[C@H](C(=O)NCC(=O)N[C@@H](CC(=O)O)C(=O)N[C@@H](CCC(=O)O)C(=O)N[C@@H](Cc1ccccc1)C(=O)O)[C@@H](C)CC (Malonyl-IAQELRRIGDEF-OH)
- inhibition: < 50%

Structure (SMILES): CCCCCCCC(=O)N[C@H](C(=O)N[C@@H](C)C(=O)N[C@@H](CCC(N)=O)C(=O)N[C@@H](CCC(=O)O)C(=O)N[C@@H](CC(C)C)C(=O)N[C@@H](CCCNC(=N)N)C(=O)N[C@@H](CCCNC(=N)N)C(=O)N[C@H](C(=O)NCC(=O)N[C@@H](CC(=O)O)C(=O)N[C@@H](CCC(=O)O)C(=O)N[C@@H](Cc1ccccc1)C(=O)O)[C@@H](C)CC)[C@@H](C)CC (Octanoyl-IAQELRRIGDEF-OH)
- inhibition: < 50%
